“Also recorded” adds a separate entry of the source.

In one assay the test system is C57BL/6J mice. Briefly: minute ventilation and hypoxic ventilatory response (HVR) in awake lean mice. Type of assay: in vivo, mouse. The protocol: Leptin increases the HVR in lean mice. Minute ventilation (VE) was measured at normoxic conditions and during 3-5 min exposure to 10% O2 in awake lean male C57BL/6J mice, n=4, at baseline and during leptin administration (30 μg/day for 3 days via a subcutaneous osmotic pump). Serum leptin levels increased from 0.8±0.2 ng/ml to 33.2±1.9 ng/ml, which was similar to previously reported in DIO mice and obese humans, and then returned to the baseline. Mice decreased food intake and lost weight. Leptin increased VE at baseline as a result of an increase in the metabolic rate (FIG. 10). Leptin increased the HVR by greater than 60%.
Trpm7 inhibition prevents effects of leptin on the HVR. […] Male C57BL/6J mice (n=2) were treated with leptin for 3 days as described above. After 5 day recovery, leptin and a TRPM7 blocker NS8593 (10 mg/kg/day) were administered subcutaneously via an osmotic pump for 3 days. Mice reduced food intake and lost weight with leptin, regardless of the TRPM7 inhibitor.

The test system of assay [1] is Trpm7 promoter. Nature of the assay: Trpm7 promoter methylation by bisulfite sequencing in PC12^LEPRb cells. Type of assay: cell-based. Conditions: leptin exposure. The procedure: (§1) FIG. 8A-8C illustrates exposure of leptin to Leprb-expressing PC12^LEPRb cells increased Trpm7 promoter activity and gene transcription. (A) PC12^LEPRb cells transfected with either pEZX-Luc-vector (empty, no insert) or pEZX-Luc-Trpm7 (promoter insert) were exposed to 1 ng/ml leptin for 48 hr prior to measurement of luciferase activity. B and C) Gene expression and promoter methylation of Trpm7 in cells exposed to leptin or 5-aza-dC for 48 hr. Trpm7 mRNA level was quantitated by qPCR. Methylation status of CpG sites in Trpm7 promoter were determined by bisulfite sequencing. A total of 40 CpG sites per clone and 6 individual clones for each treatment group were sequenced. Each row of circles represented an individual clone. Putative TF binding sites such as STAT3 and NFkB were shown in scale in Trpm7 promoter. TSS: transcription start site. Boxed regions highlight the CpG sites showing differential methylation in cells exposed to leptin or 5-aza-dC. (p<0.05). Values were mean±SD.
(§2) Leptin can regulate gene transcription by binding to ObRb to activate Janus kinase 2/signal transducers and activator of transcription 3 (JAK2/STAT3) as well as ERK1/2 and PI3K pathways (FIG. 7), which are known to regulate a wide variety of genes. To examine the possible regulation of Trpm7 transcription by leptin, we searched the Trpm7 promoter sequence for potential binding sites for transcription factors (TFs). […]

Assay [2] relates to isolated CB-CSN preparations. Briefly: hypoxia-induced CSN activity in isolated superfused CB-CSN preparation. Also noted: species or system C57B1/6J (WT) mice. Conditions: effect of leptin. From the text: SKF and 2-APB data were pooled, *p<0.05.
Leptin and carotid body function CBs are major peripheral O2 sensors, which initiate chemosensory inputs in the CSN to the respiratory centers via nucleus solitarius to evoke acute hyperventilation, and the rostral ventrolateral medulla presympathetic neurons to stimulate SNS activity. CB plays critical roles in the development of hypertension during chronic intermittent hypoxia (CIH); and the sympatho-excitation and destabilization of breathing during heart failure. However, the connection between CB and the obesity-associated hypertension and respiratory instability has not been clearly established. […] The effect of leptin on isolated CB-CSN preparations from C57B1/6J (WT) mice was studied.

Assay [3] concerns Trpm7 promoter. Briefly: Trpm7 promoter luciferase reporter in PC12^LEPRb cells. Type of assay: cell-based. Conditions: leptin 1 ng/ml, 48 hr. The procedure: as §1, §2
A further assay has as its system TRPM7. Nature of the assay: Trpm7 mRNA level by qPCR in PC12^LEPRb cells. Type of assay: cell-based. As to conditions: 48 hr exposure. The protocol:
as §1, §2

With leptin: an adipocyte-produced hormone, in the assay with C57BL/6J mice (leptin 30 μg/day for 3 days), the body weight entry is listed as “lost weight” and the food intake entry is “decreased”. In addition, the “increase of the HVR” value with C57BL/6J mice (leptin 30 μg/day for 3 days, subcutaneous osmotic pump, 10% O2) is “greater than 60%”. The “hypoxic ventilatory response (HVR), in words” value with C57BL/6J mice (leptin infusion) was “increased”. In addition, the “minute ventilation (VE) at baseline” value with C57BL/6J mice (leptin infusion, normoxic) is on record as “increased”. In the assay on Trpm7 promoter [1], the “methylation status of Trpm7 promoter” value is “CpG site-specific demethylation”. In addition, the “hypoxia-induced CSN activity” value in assay [2] is given as “significantly augmented”. Besides, in assay [2] (listed as Leptin), the “hypoxia-induced CSN activity” value was “augments”. Moreover, the “Trpm7 promoter luciferase activity” value in the assay on Trpm7 promoter [3] is listed as “significantly increased”. The “Trpm7 mRNA level” value with TRPM7 is reported as “increased; also recorded: significant increase”.

Values taken from US20200054581A1, “APPLICATION OF TRPM7 INHIBITORS TO TREAT SLEEP APNEA AND HYPERTENSION IN OBESITY” (THE JOHNS HOPKINS UNIVERSITY, priority 2017, published 2020).
